In the supplement of paper PMC10307832:

What was measured:
Test in all cases: relative viability (nuclei count vs DMSO), 5 days (fraction); higher = more cells survive
BMX-IN-1 + Lapatinib = compound: C=CC(=O)Nc1cc(-n2c(=O)ccc3cnc4ccc(-c5ccc(NS(C)(=O)=O)cc5)cc4c32)ccc1C [BMX-IN-1] + CS(=O)(=O)CCNCc1ccc(-c2ccc3ncnc(Nc4ccc(OCc5cccc(F)c5)c(Cl)c4)c3c2)o1 [Lapatinib] (partner 2 µM)
Outline: (§1)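 A single step with final 0.05% Triton X-100, 1% formaldehyde and 1 ug/ml Hoechst fixed the cells and stained nuclei 5 days after treatment. Lung cancer cell lines in 1536-well plates had been treated by pin tool the day after seeding with one drug alone or a fixed anchor-drug dose plus five library-drug doses (not always all listed) in √10 steps, and nuclei were counted on 4× images. Relative viability is the ratio of nuclei in treated wells to nuclei in vehicle wells, taken as the median of duplicate plates.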

BMX-IN-1 + Phenformin = compound: C=CC(=O)Nc1cc(-n2c(=O)ccc3cnc4ccc(-c5ccc(NS(C)(=O)=O)cc5)cc4c32)ccc1C [BMX-IN-1] + N=C(N)NC(=N)NCCc1ccccc1 [Phenformin] (partner 250 µM)
Outline: as §1

PAC-1 + Crizotinib = compound: C=CCc1cccc(/C=N/NC(=O)CN2CCN(Cc3ccccc3)CC2)c1O [PAC-1] + C[C@@H](Oc1cc(-c2cnn(C3CCNCC3)c2)cnc1N)c1c(Cl)ccc(F)c1Cl [Crizotinib] (partner 1 µM)
Outline: as §1

Ibrutinib + Pictilisib = compound: C=CC(=O)N1CCC[C@@H](n2nc(-c3ccc(Oc4ccccc4)cc3)c3c(N)ncnc32)C1 [Ibrutinib] + CS(=O)(=O)N1CCN(Cc2cc3nc(-c4cccc5[nH]ncc45)nc(N4CCOCC4)c3s2)CC1 [Pictilisib] (partner 1 µM)
Outline: as §1

Cell Line | relative viability (BMX-IN-1 + Lapatinib; first compound 0.02 µM) | relative viability (BMX-IN-1 + Lapatinib; first compound 0.2 µM) | relative viability (BMX-IN-1 + Lapatinib; first compound 0.6325 µM) | relative viability (BMX-IN-1 + Lapatinib; first compound 2 µM) | relative viability (BMX-IN-1 + Phenformin; first compound 0.02 µM) | relative viability (BMX-IN-1 + Phenformin; first compound 0.2 µM) | relative viability (BMX-IN-1 + Phenformin; first compound 0.6325 µM) | relative viability (BMX-IN-1 + Phenformin; first compound 2 µM) | relative viability (PAC-1 + Crizotinib; first compound 0.02 µM) | relative viability (PAC-1 + Crizotinib; first compound 0.06325 µM) | relative viability (PAC-1 + Crizotinib; first compound 0.2 µM) | relative viability (PAC-1 + Crizotinib; first compound 2 µM) | relative viability (Ibrutinib + Pictilisib; first compound 0.005 µM) | relative viability (Ibrutinib + Pictilisib; first compound 0.01581 µM) | relative viability (Ibrutinib + Pictilisib; first compound 0.05 µM) | relative viability (Ibrutinib + Pictilisib; first compound 0.1581 µM) | relative viability (Ibrutinib + Pictilisib; first compound 0.5 µM)
NCI-H520 | 1.04 | 0.903 | 1.05 | 0.838 | 0.711 | 0.81 | 0.709 | 0.693 | 0.772 | 0.746 | 0.735 | 0.698 | 0.25 | 0.262 | 0.258 | 0.183 | 0.254
NCI-H596 | 0.987 | 1.13 | 1.12 | 0.935 | 0.891 | 0.981 | 0.732 | 0.83 | 0.974 | 0.952 | 0.98 | 1.07 | 0.43 | 0.406 | 0.442 | 0.392 | 0.393
NCI-H647 | 1.3 | 0.957 | 1.43 | 0.949 | 0.537 | 0.547 | 0.599 | 0.661 | 1.06 | 1.12 | 1.03 | 0.812 | 0.28 | 0.418 | 0.357 | 0.323 | 
NCI-H650 | 0.862 | 1.11 | 0.982 | 0.858 | 0.46 | 0.505 | 0.452 | 0.455 | 0.591 | 0.653 | 0.825 | 0.72 |  | 0.883 |  | 0.973 | 0.678
NCI-H661 | 0.564 | 0.458 | 0.452 | 0.517 | 0.242 | 0.259 | 0.282 | 0.255 | 0.927 | 1.06 |  | 1.06 | 0.302 | 0.413 | 0.308 | 0.358 | 0.284
NCI-H727 | 0.841 | 1.01 | 0.887 | 0.939 | 0.532 | 0.546 | 0.584 | 0.392 | 0.847 | 0.841 | 0.898 | 0.821 | 0.253 | 0.471 | 0.246 | 0.298 | 0.343
NCI-H838 | 1.3 | 1.16 | 1.2 | 1.04 | 0.564 | 0.739 | 0.744 | 0.572 | 0.776 | 0.758 | 0.801 | 0.92 | 0.343 | 0.38 | 0.514 | 0.472 | 0.543
NCI-H1355 | 1.14 | 1.09 | 1.08 | 0.982 | 0.397 | 0.477 | 0.453 | 0.481 | 1.08 | 1.08 | 1.17 | 1.03 |  | 0.474 | 0.481 | 0.26 | 0.343
NCI-H1437 | 0.928 | 0.867 | 0.907 | 0.915 | 0.281 | 0.342 | 0.334 | 0.326 | 0.883 | 0.913 | 0.85 | 0.68 | 0.346 | 0.413 | 0.428 | 0.359 | 0.443
NCI-H1563 | 0.837 | 0.86 | 0.903 | 0.824 | 0.664 | 0.644 | 0.648 | 0.642 | 0.851 | 0.801 | 0.784 | 0.969 | 0.663 | 0.635 | 0.677 | 0.607 | 0.602
NCI-H1650 | 0.666 | 0.941 | 0.88 | 0.77 | 0.493 | 0.44 | 0.446 | 0.413 | 0.936 | 1.09 | 0.898 | 1.03 | 0.493 | 0.52 | 0.506 | 0.515 | 0.476
NCI-H1651 | 1 | 0.967 | 1.17 | 0.834 | 0.292 | 0.451 | 0.394 | 0.363 | 0.815 | 0.898 | 0.874 | 0.755 | 0.502 | 0.482 | 0.466 | 0.627 | 0.643
NCI-H1666 | 0.772 | 0.626 | 0.663 | 0.444 | 0.572 | 0.581 | 0.597 | 0.607 | 0.981 | 0.897 | 1.05 | 1 | 0.388 | 0.358 | 0.31 | 0.409 | 0.235
NCI-H1734 | 1.21 | 1.66 | 1.1 | 1.05 | 0.341 | 0.431 | 0.461 | 0.415 | 0.698 | 0.627 | 0.659 | 0.766 | 0.354 | 0.446 | 0.43 | 0.491 | 0.388
NCI-H1755 | 1.2 | 1.02 | 1.09 | 1.02 | 0.544 | 0.673 | 0.711 | 0.612 | 0.938 | 0.867 | 0.847 | 0.805 | 0.418 | 0.421 | 0.424 | 0.389 | 0.362
NCI-H1792 | 0.834 | 1.04 | 0.937 | 0.922 | 0.235 | 0.354 | 0.292 | 0.312 | 0.988 | 1.04 | 1.03 | 0.909 | 0.286 | 0.25 | 0.23 | 0.295 | 0.242
NCI-H1915 | 1.16 | 1.05 | 1.13 | 0.968 | 0.32 | 0.387 | 0.389 | 0.37 | 0.892 | 0.899 | 0.85 | 0.857 |  | 0.978 | 0.891 | 0.609 | 1.02
NCI-H1944 | 0.986 | 0.866 | 0.919 | 0.921 | 0.2 | 0.219 | 0.234 | 0.205 | 1.06 | 1.16 | 1.02 | 1.14 | 0.305 | 0.334 | 0.308 | 0.317 | 0.316
